Results as given in patent US9668482B1, “Fused heterocyclic compound and pest control application thereof” (Sumitomo Chemical Company, Limited, priority 2014, dated 2017).

Columns and labels:
Format in all cases: in vivo
[1] = tested on: American cockroaches (Periplaneta americana); assay: Test Example 13: American cockroach, topical application of 10% w/v acetone solution; settings: 1.0 μL topical on ventral prothorax, females, 7 days, 25° C.
Protocol: The present compounds 1 and 2 were dissolved in acetone and then the 10% w/v acetone solutions were prepared.
(§1) A droplet (1.0 μL) of the solution was topically applied onto the ventral prothorax of each female American cockroaches (Periplaneta americana). Then, the treated individuals were transferred to a clean polyethylene cup (bottom diameter: 12 cm, height: 10 cm) with some food and water. Each treatment consisted of 2 replications of 5 cockroaches/polyethylene cup. The mortality was determined on 7 days after treatment at 25° C. Mortality of insects (%)=(Number of dead insects/Number of tested insects)×100

[2] = tested on: German cockroach (Blattella germanica); assay: Test Example 9: German cockroach, treated filter paper with sucrose bait; settings: 500 ppm, 0.7 mL on filter paper, male adults, after 6 days
Protocol: Each of the present compounds 1 to 3, 5, 7, and 13 was made to a formulation according to the Formulation example 5 and was then diluted with water so that the active ingredient concentration was set to 500 ppm to prepare the diluted solution. The bottom of the polyethylene cup having 5.5 cm diameter was matted with the same size of a filter paper, and 0.7 mL of the diluted solution was added dropwise to the filter paper and 30 mg sucrose as bait was placed in the cup uniformly. Two (2) heads of male adult German cockroach (Blattella germanica) were released into the polyethylene cup and the cup was covered with the lid. After 6 days, the life and death of German cockroach was examined and the number of died insects was counted and the mortality of insects was calculated by the following equation. Mortality of insects (%)=(Number of dead insects/Number of tested insects)×100

[3] = tested on: housefly (Musca domestica); assay: Test Example 8: housefly, treated filter paper with sucrose bait; settings: 500 ppm, 0.7 mL on filter paper, female adults, after 24 hours
Protocol: Each of the present compounds 1 to 3, 5, 7, 8, 11, 13 to 16, 21 and 22 was made to a formulation according to the Formulation example 5 and was then diluted with water so that the active ingredient concentration was set to 500 ppm to prepare the diluted solution. The bottom of the polyethylene cup having 5.5 cm diameter was matted with the same size of a filter paper, and 0.7 mL of the diluted solution was added dropwise to the filter paper and 30 mg sucrose as bait was placed in the cup uniformly. Ten (10) heads of female adult housefly (Musca domestica) were released into the polyethylene cup and the cup was covered with the lid. After 24 hours, the life and death of housefly was examined and the number of died insects was counted and the mortality of insects was calculated by the following equation. Mortality of insects (%)=(Number of dead insects/Number of tested insects)×100

[4] = tested on: American cockroaches (Periplaneta americana); assay: Test Example 14: American cockroach, topical application, comparison with compound 112; settings: 1.0 μL topical, 7 days after treatment
Protocol: The compound 112 (hereinafter, referred to as “compound 112”), described in Table 40 of WO 2013/018928 pamphlet, and the present compound 1 were dissolved in acetone and then the acetone solutions of the designated concentration were prepared.
as §1, with “roaches/polyethylene” for “cockroaches/polyethylene”

SMILES: CCS(=O)(=O)c1ccc(-n2cnc(Cl)n2)nc1-c1nc2cc(C(F)(F)F)cnc2n1C [compound 2]
- Mortality of insects [1]: 100%

SMILES: CCS(=O)(=O)c1ccc(-n2cnc(SC)n2)nc1-c1nc2cc(C(F)(F)F)cnc2n1C [compound 7]
- Mortality of insects [2]: 100%
- Mortality of insects [3]: 100%

SMILES: CCS(=O)(=O)c1ccc(-n2cnc(S(C)(=O)=O)n2)nc1-c1nc2cc(C(F)(F)F)cnc2n1C [compound 8]
- Mortality of insects [3]: 100%

SMILES: CC[S+]([O-])c1ccc(-n2cnc(C(F)(F)F)n2)nc1-c1nc2cc(C(F)(F)F)cnc2n1C (stereo not drawn) [compound 21]
- Mortality of insects [3]: 100%

SMILES: CCS(=O)(=O)c1ccc(-n2cnc(C(F)(F)F)n2)nc1-c1nc2cc(C(F)(F)F)cnc2n1C [compound 5]
- Mortality of insects [2]: 100%
- Mortality of insects [3]: 100%

SMILES: CCSc1ccc(-n2cncn2)nc1-c1nc2cc(C(F)(F)F)cnc2n1C [compound 13]
- Mortality of insects [2]: 100%

SMILES: CCS(=O)(=O)c1ccc(-n2cnc(C(=O)OC)n2)nc1-c1nc2cc(C(F)(F)F)cnc2n1C [compound 11]
- Mortality of insects [3]: 100%

SMILES: CC[S+]([O-])c1ccc(-n2cnc(SC)n2)nc1-c1nc2cc(C(F)(F)F)cnc2n1C (stereo not drawn) [compound 22]
- Mortality of insects [3]: 100%

SMILES: CCS(=O)(=O)c1cc(-c2ncccn2)cnc1-c1nc2cc(C(F)(F)F)cnc2n1C [Compound 112]
- Morality (%) ([4]; concentration 2 w/v%): 70%
- Morality (%) ([4]; concentration 4 w/v%): 100%
